These results are taken from ChEMBL document CHEMBL1121640, “Analgesic narcotic antagonists. 6. 7 beta, 8 beta-Methano- and 7 beta, 8 beta-epoxydihydrocodeinone” (1981).

Calls of active or inactive are those of the source. The rule behind the calls is not given here. Where only a bound is given, the exact number is not on record here.

The subject of assay [1] is Mus musculus. In words: Compound was tested for analgesic activity by writhing assay in mouse after subcutaneous administration. Format: functional. The settings on record: sc. (In writhing tests, fewer writhes than in controls are read as antinociception.)
Assay [2] has as its system Rattus norvegicus. In words: Compound was tested for analgesic activity by tail-flick assay in rat after subcutaneous administration. Format: functional. The settings on record: sc. On the technique in general: In hot-plate and tail-flick tests a longer latency is read as antinociception.
Assay [3] concerns Rattus norvegicus. Description: Compound was tested for analgesic activity by tail-flick assay in rat after subcutaneous administration; Inactive at 65 uM/Kg. Format: functional, organism-based.
Assay [4] concerns Mus musculus. Description: Compound was tested for analgesic activity by writhing assay in mouse after subcutaneous administration; Inactive at 32 uM/Kg. Format: functional, organism-based.
The test system of assay [5] is Rattus norvegicus. In words: Compound was tested for analgesic activity by tail-flick assay in rat after subcutaneous administration; Inactive at 30 uM/Kg. The assay is classed as functional, organism-based.
In assay [6] the test system is Rattus norvegicus. In words: Compound was tested for narcotic antagonist activity determined using an intraperitoneal ED80 of morphine in rat tail-flick assay; Inactive at 55 uM/Kg. The assay is classed as functional, organism-based.
In assay [7] the test system is Rattus norvegicus. In words: Compound was tested for narcotic antagonist activity determined using an intraperitoneal ED80 of morphine in rat tail-flick assay; Inactive at 25 uM/Kg. Format: functional, organism-based.
For assay [8], the system named is Rattus norvegicus. In words: Compound was tested for analgesic activity by tail-flick assay in rat after subcutaneous administration; Inactive at 3 uM/Kg. The assay is classed as functional, organism-based.
Assay [9] relates to Mus musculus. Description: Compound was tested for analgesic activity by writhing assay in mouse after subcutaneous administration; Inactive at 10 uM/Kg. Format: functional, organism-based.
The subject of assay [10] is Rattus norvegicus. In words: Compound was tested for narcotic antagonist activity determined using an intraperitoneal ED80 of morphine in rat tail-flick assay. The assay is classed as functional. The settings on record: ip.
The test system of assay [11] is Rattus norvegicus. Description: Compound was tested for analgesic activity by tail-flick assay in rat after subcutaneous administration; Inactive at 25 uM/Kg. The assay is classed as functional, organism-based.
Assay [12] deals with Rattus norvegicus. Description: Compound was tested for narcotic antagonist activity determined using an intraperitoneal ED80 of morphine in rat tail-flick assay; Inactive at 50 uM/Kg. The assay is classed as functional, organism-based.
The test system of assay [13] is Rattus norvegicus. Description: Compound was tested for analgesic activity by tail-flick assay in rat after subcutaneous administration; Inactive at 32 uM/Kg. The assay is classed as functional, organism-based.

The term ED50 denotes the dose that gives a 50% effect, or the effect in half of the subjects. Turning to `COc1ccc2c3c1O[C@H]1[C@@H](O)C=C[C@H]4[C@@H](C2)N(C)CC[C@@]341` [CODEINE], the median effective dose (ED50) amounted to 10.3 µmol/kg in the assay on Mus musculus [1] and 75.1 µmol/kg in the assay on Rattus norvegicus [2].
In the assay with Mus musculus [1], `COc1ccc2c3c1OC1[C@@H](O)[C@@H]4C[C@@H]4C4C(C2)N(C)CCC314` (stereo partly specified) gave an ED50 of 1.79 µmol/kg. In the assay with Rattus norvegicus [3], the ED50 result is “inactive”.
Consider `COc1ccc2c3c1OC1C(=O)[C@@H]4O[C@@H]4C4C(C2)N(C)CCC314` (stereo partly specified), for which the ED50 result with Mus musculus [4] is “inactive”. Besides, in the assay on Rattus norvegicus [2], the ED50 was more than 30 µmol/kg.
`COc1ccc2c3c1OC1C34CCN(C)C(C2)C4[C@H]2O[C@H]2[C@@]1(O)OC` (stereo partly specified) had an ED50 in the assay with Mus musculus [1] of 18 µmol/kg. For the same compound, the ED50 result in the assay with Rattus norvegicus [5] was “inactive”.
For `COc1ccc2c3c1OC1[C@@H](O)[C@@H]4C[C@@H]4C4C(C2)N(CC2CCC2)CCC314` (stereo partly specified), the ED50 with Mus musculus [1] was more than 55 µmol/kg. Besides, the ED50 entry with Rattus norvegicus [6] is “inactive”.
The compound `COc1ccc2c3c1O[C@H]1C(=O)C=CC4[C@@H](C2)N(CC2CCC2)CC[C@@]341` (stereo partly specified) returned an ED50 in the assay with Mus musculus [1] of 20.3 µmol/kg. Further, in the assay with Rattus norvegicus [7], the ED50 entry is “inactive”.
For `COc1ccc2c3c1OC1C(=O)C=CC4C(C2)N(C)CCC314` (stereo unspecified), the ED50 result in the assay on Rattus norvegicus [8] and in the assay with Mus musculus [9] was “inactive” each time.
For `COc1ccc2c3c1OC1C(=O)[C@@H]4C[C@@H]4C4C(C2)N(CC2CC2)CCC314` (stereo partly specified), the ED50 in the assay on Mus musculus [1] stood at 9 µmol/kg; with Rattus norvegicus [10], 8.7 µmol/kg.
With `Oc1ccc2c(c1)[C@@]13CCCC[C@@]1(O)[C@@H](C2)N(CC1CCC1)CC3` [BUTORPHANOL], the ED50 in the assay on Mus musculus [1] came to 0.34 µmol/kg; with Rattus norvegicus [10] it was 2 µmol/kg.
`COc1ccc2c3c1O[C@H]1C(=O)CC[C@H]4[C@@H](C2)N(C)CC[C@]314` [HYDROCODONE]: the ED50 amounted to 2.4 µmol/kg in the assay on Mus musculus [1] and 5.2 µmol/kg with Rattus norvegicus [2].
On to `CC(C)=CCN1CC[C@]2(C)c3cc(O)ccc3C[C@H]1[C@H]2C` [(+)-PENTAZOCINE], for which the figures for the ED50 in the assay with Mus musculus [1] and in the assay on Rattus norvegicus [10] were 13 µmol/kg and 36.4 µmol/kg, respectively.
As for `COc1ccc2c3c1O[C@H]1C(=O)CC(SCCO)C4C(C2)N(C)CCC341` (stereo partly specified), the ED50 with Mus musculus [1] is more than 25 µmol/kg. Also, in the assay on Rattus norvegicus [11], the ED50 result was “inactive”.
Consider `COc1ccc2c3c1O[C@H]1[C@@H](O)CC[C@H]4[C@@H](C2)N(C)CC[C@@]341` [DIHYDROCODEINE], for which the ED50 in the assay on Mus musculus [1] was 3.8 µmol/kg; in the assay with Rattus norvegicus [2], more than 22 µmol/kg.
Turning to `COc1ccc2c3c1OC1C(=O)CC(SCCO)C4C(C2)N(CC2CC2)CCC314` (stereo unspecified), the ED50 with Mus musculus [1] was 3.4 µmol/kg; with Rattus norvegicus [10], more than 30 µmol/kg.
`COc1ccc2c3c1OC1C(=O)[C@@H]4C[C@@H]4C4C(C2)N(CC2CCC2)CCC314` (stereo partly specified) returned an ED50 with Mus musculus [1] of 12.4 µmol/kg. Moreover, the ED50 result in the assay with Rattus norvegicus [12] was “inactive”.
Consider `COc1ccc2c3c1OC1[C@@H](O)[C@@H]4O[C@@H]4C4C(C2)N(C)CCC314` (stereo partly specified), for which the ED50 entry in the assay on Mus musculus [4] and in the assay with Rattus norvegicus [13] was “inactive” throughout.
As for `COc1ccc2c3c1OC1C(=O)[C@@H]4C[C@@H]4C4C(C2)N(C)CCC314` (stereo partly specified), the ED50 in the assay on Mus musculus [1] is 0.43 µmol/kg; in the assay with Rattus norvegicus [2], 4.7 µmol/kg.
`COc1ccc2c3c1O[C@H]1C(=O)CC(CCl)C4C(C2)N(C)CCC341` (stereo partly specified) displayed an ED50 with Mus musculus [1] of 12.2 µmol/kg. Also, the ED50 result in the assay on Rattus norvegicus [11] is “inactive”.
